From patent US20240131032A1, “AN ACTIVITY-GUIDED MAP OF ELECTROPHILE-CYSTEINE INTERACTIONS IN PRIMARY HUMAN IMMUNE CELLS” (The Scripps Research Institute, priority 2019, published 2024) come the findings set out here.

Series [1] deals with BIRC2 (Homo sapiens, UniProt Q13490, C45A). Kind of series: Western blot of BIRC2 content in human T cells. The settings on record: EV-3 10 μM, AT-406 1 μM, 24 h; transfected primary human T cells. On the technique in general: In western blotting, separated proteins are transferred to a membrane and probed.
BIRC2, sequence (Q13490 whole entry C45A): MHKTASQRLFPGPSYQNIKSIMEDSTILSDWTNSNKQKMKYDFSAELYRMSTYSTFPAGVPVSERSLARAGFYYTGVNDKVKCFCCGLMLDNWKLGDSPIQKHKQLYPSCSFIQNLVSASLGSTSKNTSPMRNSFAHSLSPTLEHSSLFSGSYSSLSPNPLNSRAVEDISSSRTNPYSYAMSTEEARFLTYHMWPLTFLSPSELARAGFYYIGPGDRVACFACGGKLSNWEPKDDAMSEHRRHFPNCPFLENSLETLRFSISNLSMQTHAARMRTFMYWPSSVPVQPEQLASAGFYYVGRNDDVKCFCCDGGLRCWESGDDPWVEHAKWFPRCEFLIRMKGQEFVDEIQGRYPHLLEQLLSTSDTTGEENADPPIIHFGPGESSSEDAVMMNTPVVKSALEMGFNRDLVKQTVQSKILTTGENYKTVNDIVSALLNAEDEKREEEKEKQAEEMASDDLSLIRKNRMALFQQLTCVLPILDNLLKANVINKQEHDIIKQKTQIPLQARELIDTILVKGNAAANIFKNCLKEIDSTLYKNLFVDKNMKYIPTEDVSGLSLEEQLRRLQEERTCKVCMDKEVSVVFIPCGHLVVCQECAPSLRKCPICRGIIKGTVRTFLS
Method: All treatments were for 24 h.
All treatments were for 24 h. […] Plasmids expressing FLAG epitope-tagged versions of wild-type (WT) or the indicated cysteine-to-alanine mutants of BIRC2 (C45A) and BIRC3 (C28A) were co-transfected into primary human T cells with mCherry-expressing plasmid to control for transfection efficiency for 24 h. Cells were then treated with DMSO, EV-3 (10 μM), or AT-406 (1 μM) for 24 h and analyzed by anti-FLAG western blotting. […] (G) Quantitation of western blot data, where protein band intensity calculations were made using ImageJ software and represent the mean percentage of DMSO treated control±SEM; n=3 independent experiments per group. *p<0.05; **p<0.01 by two-tailed unpaired t test with Welch's correction compared to respective DMSO treatments.
Western blot analysis was performed on freshly isolated or expanded T cells. For Western blot protein degradation analysis, primary human T cells (2×10^7 cells/treatment) were re-suspended in RPMI media at 2×10^6 cells/mL and treated with the compounds or DMSO at 37° C. in a CO2 containing incubator for 24 h (or otherwise indicated times).
In series [2] the test system is primary human T cells. Kind of series: Multidimensional screen for inhibition of T cell activation (IL-2, IFN-γ secretion, CD25, CD69 expression). It is filed as cell-based. The conditions noted are these: anti-CD3/anti-CD28-stimulated T cells. The protocol:
FIG. 4A-4D is an overview of a multidimensional screen to identify elaborated electrophilic compounds that suppress T cell activation. FIG. 4A is a workflow for T-cell activation screen. Primary human T cells were treated with a focused library of elaborated electrophilic compounds (10 μM, structures of compounds in FIG. 12), a positive control immunosuppressive compound (DMF, 50 μM), or DMSO under TCR-stimulating conditions in 96-well plates pre-coated with 5 μg/mL αCD3 and 2 μg/mL αCD28 for 24 h. T cell activation was measured using a combination of markers, including IL2 and IFNγ secretion, as well as surface expression of CD25 and CD69. T cell viability was measured by flow cytometry using a Fixable Near-IR LIVE/DEAD™ Cell Stain. Compounds were considered as active hits if they reduced IL2 cytokine production by >65% with <15% reduction in T cell viability in the cytotoxicity assay compared to DMSO control. […]
The levels of secreted IL2, IFNγ and TNFα after incubating T cells in the presence of DMSO or electrophilic compounds under TCR-stimulating conditions were measured using DuoSet ELISA cytokine kits (R&D Systems) in clear microplates (R&D Systems) according to manufacturer's instructions and read using a CLARIOstar (BMG Labtech) plate reader (450 nm). All cytokine concentrations were calculated according to the standard curve generated for each experiment.

Series [3] relates to primary human T cells. Kind of series: T cell viability by flow cytometry (near-IR LIVE/DEAD stain). Format: cell-based. The settings on record: concentration-dependent profiles, at <20 μM. Here is the method: FIG. 4A-4D is an overview of a multidimensional screen to identify elaborated electrophilic compounds that suppress T cell activation. FIG. 4A is a workflow for T-cell activation screen. Primary human T cells were treated with a focused library of elaborated electrophilic compounds (10 μM, structures of compounds in FIG. 12), a positive control immunosuppressive compound (DMF, 50 μM), or DMSO under TCR-stimulating conditions in 96-well plates pre-coated with 5 μg/mL αCD3 and 2 μg/mL αCD28 for 24 h. T cell activation was measured using a combination of markers, including IL2 and IFNγ secretion, as well as surface expression of CD25 and CD69. T cell viability was measured by flow cytometry using a Fixable Near-IR LIVE/DEAD™ Cell Stain. Compounds were considered as active hits if they reduced IL2 cytokine production by >65% with <15% reduction in T cell viability in the cytotoxicity assay compared to DMSO control. […] FIG. 4C are structures of active hit compounds selected for follow-up studies, including two acrylamides (BPK-21, BPK-25), two chloroacetamides (EV-3, EV-93) and DMF as a positive control. FIG. 4D are line graphs showing T cell activation and cytotoxicity profiles for selected hit compounds.
Non-tissue culture treated 96-well plates were pre-coated with αCD3 (5 μg/mL) and αCD28 antibodies (2 μg/mL) in PBS (100 μL/well) and left at 4° C. overnight. Freshly isolated T cells were re-suspended in RPMI media supplemented with 10% FBS, L-glutamine (2 mM), penicillin (100 U/mL), and streptomycin ([…]) at 2×10^6 cells/mL. Compound stocks (200×) in DMSO were diluted to 2× stocks in the working RPMI media in another 96-well plate. The pre-coated 96-well treatment plates were washed with PBS ([…]), T cells (100 μL/well, 2×10^5 cells/well) were then added to the wells, followed by the addition of 2× compound stocks in RPMI media (100 μL). The outer wells of the plates were filled with media without cells to avoid the edge effect in the assay. The treatment was done overnight (24 h) at 37° C. in a 5% CO2 containing incubator. Following the treatment, the cells were transferred to a U-bottom 96-well plate and harvested by centrifugation (600 g, 3 min, 4° C.). The supernatants were kept and stored at −80° C. for further cytokine analysis, while the cells were washed with PBS (2×150 μL) prior to staining for flow cytometry analysis.
Following the PBS washes, the cells were stained with fixable near-IR LIVE/DEAD cell stain (Invitrogen) according to manufacturer's instructions. Briefly, one vial of near-IR LIVE/DEAD dye was resuspended in DMSO (50 μL) and diluted with PBS (1:1000). The diluted stain was added to each well (200 μL) and the cells were incubated for 30 min at room temperature in the dark. After this time, the cells were pelleted (600 g, 3 min, 4° C.), washed once with PBS (200 μL/well) and incubated with a freshly made cocktail of antibodies for the appropriate cell surface markers diluted in PBS containing 2% FBS (1:400 antibody dilution).
(A flow cytometer gives signals particle by particle.)

For series [4], the target named is T1, PDCD1 (Homo sapiens, UniProt Q15116).
T1 construct: endogenous in cells
T1 sequence (Q15116 25-288): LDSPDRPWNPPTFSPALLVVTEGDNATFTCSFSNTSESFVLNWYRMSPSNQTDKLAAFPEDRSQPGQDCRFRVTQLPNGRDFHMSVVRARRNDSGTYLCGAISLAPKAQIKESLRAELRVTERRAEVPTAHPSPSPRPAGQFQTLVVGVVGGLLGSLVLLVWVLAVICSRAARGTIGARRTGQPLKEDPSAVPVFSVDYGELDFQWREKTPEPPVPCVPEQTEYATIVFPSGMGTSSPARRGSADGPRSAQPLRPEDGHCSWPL
Kind of series: TMT-ABPP scout fragment sensitivity, PDCD1. It is filed as binding. The settings on record: activated T cells; 500 μM, 1 h. An excerpt:
FIG. 2A-2J provides an overview of chemical proteomic mapping of fragment electrophile-cysteine interactions and reactivity changes in human T cells. […] This protocol was applied to both control and activated T cells. FIG. 2B are structures of scout fragments KB02 and KB05. FIG. 2C-FIG. 2D are pie chart representations of cysteines (C) and proteins (D) liganded with scout fragments. Results were obtained by combining soluble and particulate proteomic fraction data for KB02 and KB05 treatments (500 μM, 1 h) of both control and activated T cells. R-values within each experimental treatment group were derived from 3-5 independent isoTOP-ABPP experiments and 4 independent TMT-ABPP experiments (6 TMT channels). A cysteine was required to be quantified in at least two experiments for each compound treatment or proteomic fraction group to be reported. FIG. 2E are bar graphs showing the total number (left) and percentage (right) of liganded cysteines per total number of cysteines quantified across the indicated reactivity ranges, where cysteine reactivity was determined by isoTOP-ABPP experiments performed with different concentrations of the IA-alkyne probe (10 and 100 μM), as described previously (Weerapana et al., 2010). FIG. 2F are bar graphs showing the total number (left) and percentage (right) of liganded proteins with expression or reactivity changes in activated T cells. […]

The target of series [5] is T2, MYD88 (Homo sapiens, UniProt Q99836).
T2 construct: endogenous in cells
T2 sequence (Q99836 whole entry): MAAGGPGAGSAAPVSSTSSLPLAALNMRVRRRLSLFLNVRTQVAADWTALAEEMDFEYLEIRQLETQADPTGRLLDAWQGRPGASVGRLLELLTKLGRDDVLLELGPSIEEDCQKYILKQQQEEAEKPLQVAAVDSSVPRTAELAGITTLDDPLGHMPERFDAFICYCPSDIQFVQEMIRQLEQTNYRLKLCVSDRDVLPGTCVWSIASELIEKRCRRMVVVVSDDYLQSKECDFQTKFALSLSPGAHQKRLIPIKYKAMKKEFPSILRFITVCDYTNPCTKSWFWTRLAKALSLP
Kind of series: isoTOP-ABPP and TMT-ABPP cysteine engagement, MYD88. Format: binding. The conditions noted are these: scout fragments. Here is the method: Activated or expanded T cells were re-suspended in RPMI media supplemented with 10% FBS, L-glutamine (2 mM), penicillin (100 U/mL), and streptomycin (100 μg/mL) at 2×10^6 cells/mL. The compounds were added to cells as 1000×DMSO stocks and mixed well with the media by pipetting up and down after addition. The cells were kept at 37° C. in 5% CO2 containing incubators for 3 h (or otherwise specified times), then pelleted by centrifugation (524 g, 5 min, 4° C.), washed with cold PBS (10 mL) and transferred to Eppendorf tubes (1 mL PBS). The cells were pelleted again (524 g, 5 min, 4° C.), flash-frozen, and kept at −80° C. until further analysis.
Activated or expanded primary human T cells were re-suspended in RPMI (1×10^6 cells/mL) containing 10% fetal bovine serum (FBS), penicillin (100 U/mL), streptomycin ([…]), and L-glutamine (2 mM). The cells were treated with DMSO or compounds for 3 h, pelleted (524 g, 5 min), washed with PBS, and lysed by sonication (2×8 pulses). Soluble and particulate proteomic fractions were separated by ultracentrifugation (100,000 g, 45 min), and protein concentration was normalized to 1.7 mg/mL using a standard DC protein assay (Bio-Rad). The resulting proteomes were analyzed by competitive isotopic Tandem Orthogonal Proteolysis Activity-Based Protein Profiling (isoTOP-ABPP). […]
The heavy/light isoTOP-ABPP ratios (R values) for each unique peptide (DMSO/compound treated) were quantified with in-house CIMAGE software (Weerapana et al., 2010) using default parameters (3 MS1 acquisitions per peak and signal to noise threshold set to 2.5). Site-specific engagement of cysteine residues was assessed by blockade of IA-alkyne probe labeling. […] Ratios for unique peptide sequences were calculated for each experiment; overlapping peptides with the same modified cysteine (e.g., different charge states, elution times or tryptic termini) were grouped together and the median ratio was reported as the final ratio (R). […]

For `CN[C@@H](C)C(=O)N[C@H]1CN(C(=O)CC(C)C)CC[C@H]2CC[C@@H](C(=O)NC(c3ccccc3)c3ccccc3)N2C1=O` [AT406], the “FLAG-tagged BIRC2 C45A mutant content” value in series [1] is listed as “still promotes the degradation”.
In the case of `CCCCS(=N)(=O)CCC(N)C(=O)O` (stereo not drawn) [BSO, buthionine sulphoximine], the “effect on T cell activation” value in series [2] is “did not affect T cell activation”.
`O=C(c1cccc(N2CCOCC2)c1)N1CCC(N(C(=O)CCl)c2ccccc2)C(Cc2ccccc2)C1` (stereo not drawn) [EV-93]: the cytotoxicity entry in series [3] was “negligible cytotoxicity”.
With `COc1ccc2c(c1)CCCN2C(=O)CCl` [KB02], in series [4], the “sensitivity of C93 of PDCD1” value is on record as “KB02-sensitivity”. Moreover, in series [5], the “modification of MYD88 at either C274 or C280 (tryptic peptide 270-282)” value is recorded as “covalently modified”.
Regarding `C=CC(=O)N(c1ccccc1)c1ccc(Br)cc1` [KB05], the “modification of MYD88 at either C274 or C280 (tryptic peptide 270-282)” value in series [5] is “covalently modified”.
